The target of this assay is T1, human VAChT (Homo sapiens, UniProt Q16572).
T1 sequence (Q16572 1-532): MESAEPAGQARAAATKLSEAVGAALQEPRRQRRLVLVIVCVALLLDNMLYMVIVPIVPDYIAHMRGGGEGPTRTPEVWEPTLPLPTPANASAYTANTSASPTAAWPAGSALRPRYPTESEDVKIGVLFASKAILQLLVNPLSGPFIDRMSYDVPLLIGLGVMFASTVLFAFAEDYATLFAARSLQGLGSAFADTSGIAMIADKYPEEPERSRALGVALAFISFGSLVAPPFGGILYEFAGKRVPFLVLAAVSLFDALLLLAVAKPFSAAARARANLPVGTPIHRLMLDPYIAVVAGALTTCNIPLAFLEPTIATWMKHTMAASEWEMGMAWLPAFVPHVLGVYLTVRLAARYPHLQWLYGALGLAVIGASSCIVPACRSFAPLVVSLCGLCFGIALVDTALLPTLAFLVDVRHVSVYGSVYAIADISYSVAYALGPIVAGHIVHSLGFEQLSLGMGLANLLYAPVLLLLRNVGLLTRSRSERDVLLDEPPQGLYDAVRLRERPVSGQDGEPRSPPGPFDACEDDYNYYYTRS
As to the kind of experiment: VAChT binding assay, displacement of. The note with it: for decrease in affinity for VAChT compared to 9: relative to compound 9; for selectivity for VAChT over σ receptors (σ1 and σ2): versus either sigma receptor type; for decrease in affinity for VAChT compared to 19e: relative to compound 19e; for VAChT selectivity Kiσ1/Ki VAChT: Ki for σ1 divided by Ki for VAChT.

As to `Cn1cccc1C(=O)C1CCN(C2Cc3ccccc3CC2O)CC1` (racemic) [Compound 19a, (1-(3-Hydroxy-1,2,3,4-tetrahydronaphthalen-2-yl)piperidin-4-yl)(1-methyl-1H-pyrrol-2-yl)methanone], the “decrease in affinity for VAChT compared to 9” value is 4-5 fold; the “selectivity for VAChT over σ receptors (σ1 and σ2)” value was more than 70 fold.

In the case of `Cn1ccc(C(=O)C2CCN(C3Cc4ccccc4CC3O)CC2)c1` (racemic) [Compound 19b, (1-(3-Hydroxy-1,2,3,4-tetrahydronaphthalen-2-yl)piperidin-4-yl)(1-methyl-1H-pyrrol-3-yl)methanone], the “decrease in affinity for VAChT compared to 9” value was 4-5 fold.

In the case of `O=C(c1cccnc1)C1CCN(C2Cc3ccccc3CC2O)CC1` (racemic) [Compound 19c, (1-(3-Hydroxy-1,2,3,4-tetrahydronaphthalen-2-yl)piperidin-4-yl)(pyridin-3-yl)methanone], where the note is “relative to compound 5”, the “lower affinity for VAChT compared to benzoyl counterpart 5” value was determined as 5 fold.

As to `COc1cccnc1C(=O)C1CCN(C2Cc3ccccc3CC2O)CC1` (racemic) [Compound 19f, (1-(3-Hydroxy-1,2,3,4-tetrahydronaphthalen-2-yl)piperidin-4-yl)(3-methoxypyridin-2-yl)methanone], the “decrease in affinity for VAChT compared to 19e” value is listed as 15 fold.

Take `O=C(c1cncc(F)c1)C1CCN(C2Cc3ccccc3CC2O)CC1` (racemic) [Compound 19g, (5-Fluoropyridin-3-yl)(1-(3-hydroxy-1,2,3,4-tetrahydronaphthalen-2-yl)piperidin-4-yl)methanone]: the “selectivity for VAChT over σ receptors (σ1 and σ2)” value is recorded as more than 70 fold.

Consider `O=C(c1cccnc1F)C1CCN(C2Cc3ccccc3CC2O)CC1` (racemic) [Compound 19k, (2-Fluoropyridin-3-yl)(1-(3-hydroxy-1,2,3,4-tetrahydronaphthalen-2-yl)piperidin-4-yl)methanone], for which the “VAChT selectivity Kiσ1/Ki VAChT” value was 100.

With `CNc1ccc(C(=O)C2CCN(C3Cc4ccccc4CC3O)CC2)cc1` (racemic) [Compound 24b, (1-(3-Hydroxy-1,2,3,4-tetrahydronaphthalen-2-yl)piperidin-4-yl)(4-(methylamino)phenyl) methanone], the “VAChT selectivity Kiσ1/Ki VAChT” value was determined as 100.

In the case of `O=C(c1ccc(OCCF)nc1)C1CCN(C2Cc3ccccc3CC2O)CC1` (racemic) [Compound 26a, (6-(2-Fluoroethoxy)pyridin-3-yl)(1-(3-hydroxy-1,2,3,4-tetrahydronaphthalen-2-yl)-piperidin-4-yl)methanone], the “decrease in affinity for VAChT compared to 19e” value is 4.5 fold.

As to `Cn1cccc1C(=O)C1CCN(C2Cc3c(N)cccc3CC2O)CC1` (racemic) [Compound 30a, (1-(8-Amino-3-hydroxy-1,2,3,4-tetrahydronaphthalen-2-yl)piperidin-4-yl)(1-methyl-1Hpyrrol-2-yl)methanone], the “higher VAChT binding affinity than 31a” value (relative to compound 31a) stood at 60 fold.
